From article PMC12155096 (International Journal of Molecular Sciences, 2025)
Structures can show the parent of a compound that is named as a salt. Where two headings read alike, the source gives them in different places.

Key:
[1] = molecular target: Photinus pyralis (firefly) luciferase (Photinus pyralis, UniProt P08659); assay: biochemical; assay type: biochemical
human CYP1A2 [2] = molecular target: T1, human CYP1A2 (Homo sapiens, UniProt P05177)
T1 sequence (P05177 1-516): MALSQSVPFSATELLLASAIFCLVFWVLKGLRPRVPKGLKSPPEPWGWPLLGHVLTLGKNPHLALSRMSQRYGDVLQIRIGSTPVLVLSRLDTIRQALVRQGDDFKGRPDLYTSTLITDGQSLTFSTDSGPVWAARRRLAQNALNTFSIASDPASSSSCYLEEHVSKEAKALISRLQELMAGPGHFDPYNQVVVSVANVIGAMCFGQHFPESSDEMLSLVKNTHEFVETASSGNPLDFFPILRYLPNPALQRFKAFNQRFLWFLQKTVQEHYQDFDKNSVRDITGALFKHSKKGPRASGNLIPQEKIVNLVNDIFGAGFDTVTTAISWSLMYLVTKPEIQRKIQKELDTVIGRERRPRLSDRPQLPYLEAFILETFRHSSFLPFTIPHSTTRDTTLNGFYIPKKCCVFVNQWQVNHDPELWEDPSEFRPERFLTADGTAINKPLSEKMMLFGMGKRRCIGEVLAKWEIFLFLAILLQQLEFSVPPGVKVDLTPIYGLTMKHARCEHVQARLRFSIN

human CYP2C9 [3] = molecular target: T2, human CYP2C9 (Homo sapiens, UniProt P11712)
T2 sequence (P11712 whole entry): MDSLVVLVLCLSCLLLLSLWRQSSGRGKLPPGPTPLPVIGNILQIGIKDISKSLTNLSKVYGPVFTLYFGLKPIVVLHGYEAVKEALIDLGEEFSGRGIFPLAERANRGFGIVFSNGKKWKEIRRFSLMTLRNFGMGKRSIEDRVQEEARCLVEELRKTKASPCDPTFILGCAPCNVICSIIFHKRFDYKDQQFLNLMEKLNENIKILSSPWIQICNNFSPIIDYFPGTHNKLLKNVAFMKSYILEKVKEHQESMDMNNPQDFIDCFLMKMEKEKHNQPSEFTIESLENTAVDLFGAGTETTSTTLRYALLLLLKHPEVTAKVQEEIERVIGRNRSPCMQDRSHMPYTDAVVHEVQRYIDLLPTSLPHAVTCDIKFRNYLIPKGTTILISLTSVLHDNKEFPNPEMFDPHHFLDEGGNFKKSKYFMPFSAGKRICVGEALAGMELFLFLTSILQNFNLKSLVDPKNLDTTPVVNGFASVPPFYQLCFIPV

human CYP2C19 [4] = molecular target: T3, human CYP2C19 (Homo sapiens, UniProt P33261)
T3 sequence (P33261 whole entry): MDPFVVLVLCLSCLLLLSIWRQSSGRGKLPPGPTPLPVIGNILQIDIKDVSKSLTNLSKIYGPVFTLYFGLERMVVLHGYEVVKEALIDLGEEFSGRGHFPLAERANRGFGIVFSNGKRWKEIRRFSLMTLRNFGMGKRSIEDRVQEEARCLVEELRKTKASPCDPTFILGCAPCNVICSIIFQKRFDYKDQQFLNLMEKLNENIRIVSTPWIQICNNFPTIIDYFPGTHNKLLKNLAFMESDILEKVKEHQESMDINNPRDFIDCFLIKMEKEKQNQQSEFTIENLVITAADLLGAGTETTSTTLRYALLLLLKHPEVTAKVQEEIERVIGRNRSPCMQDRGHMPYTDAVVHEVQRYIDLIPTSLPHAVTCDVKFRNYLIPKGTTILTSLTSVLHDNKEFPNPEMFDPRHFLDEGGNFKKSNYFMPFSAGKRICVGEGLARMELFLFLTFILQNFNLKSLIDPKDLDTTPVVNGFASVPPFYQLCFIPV

human CYP2D6 = human CYP2D6 (Homo sapiens, UniProt P10635)
Sequence of human CYP2D6 (P10635 whole entry): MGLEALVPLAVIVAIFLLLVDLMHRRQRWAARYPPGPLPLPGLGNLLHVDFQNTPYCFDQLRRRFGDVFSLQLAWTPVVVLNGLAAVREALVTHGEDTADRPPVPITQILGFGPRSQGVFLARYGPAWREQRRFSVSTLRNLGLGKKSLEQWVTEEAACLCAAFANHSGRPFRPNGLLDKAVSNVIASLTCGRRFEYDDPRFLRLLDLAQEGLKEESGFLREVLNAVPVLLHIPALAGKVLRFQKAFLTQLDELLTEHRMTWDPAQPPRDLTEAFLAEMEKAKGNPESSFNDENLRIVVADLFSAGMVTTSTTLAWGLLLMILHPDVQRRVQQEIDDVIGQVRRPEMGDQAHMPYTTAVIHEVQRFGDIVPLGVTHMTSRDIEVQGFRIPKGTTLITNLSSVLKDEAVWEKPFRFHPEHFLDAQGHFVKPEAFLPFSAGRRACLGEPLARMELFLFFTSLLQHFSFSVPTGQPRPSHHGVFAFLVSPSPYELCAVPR

CYP3A4 = CYP3A4 (Homo sapiens, UniProt P08684)
Sequence of CYP3A4 (P08684 whole entry): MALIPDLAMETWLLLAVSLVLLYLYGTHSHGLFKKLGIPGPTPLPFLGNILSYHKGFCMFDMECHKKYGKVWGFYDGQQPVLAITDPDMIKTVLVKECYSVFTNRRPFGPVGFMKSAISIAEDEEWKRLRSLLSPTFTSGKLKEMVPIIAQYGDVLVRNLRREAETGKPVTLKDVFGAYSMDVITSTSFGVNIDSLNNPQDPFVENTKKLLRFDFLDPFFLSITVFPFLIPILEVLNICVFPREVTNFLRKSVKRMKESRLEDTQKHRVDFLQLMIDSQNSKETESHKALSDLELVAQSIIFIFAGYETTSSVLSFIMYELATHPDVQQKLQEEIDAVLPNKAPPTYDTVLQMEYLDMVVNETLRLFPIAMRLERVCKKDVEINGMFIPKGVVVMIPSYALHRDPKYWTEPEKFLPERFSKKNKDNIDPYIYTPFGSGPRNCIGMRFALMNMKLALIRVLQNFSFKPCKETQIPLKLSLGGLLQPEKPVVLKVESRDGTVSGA

human CYP1A2 [5] = molecular target: T1, human CYP1A2; assay: biochemical
human CYP2C9 [6] = molecular target: T2, human CYP2C9; assay: biochemical
human CYP2C19 [7] = molecular target: T3, human CYP2C19; assay: biochemical
[8] = CYP2C9 IC50 (half-maximal inhibitory concentration)

Sequence of Photinus pyralis (firefly) luciferase (P08659 whole entry): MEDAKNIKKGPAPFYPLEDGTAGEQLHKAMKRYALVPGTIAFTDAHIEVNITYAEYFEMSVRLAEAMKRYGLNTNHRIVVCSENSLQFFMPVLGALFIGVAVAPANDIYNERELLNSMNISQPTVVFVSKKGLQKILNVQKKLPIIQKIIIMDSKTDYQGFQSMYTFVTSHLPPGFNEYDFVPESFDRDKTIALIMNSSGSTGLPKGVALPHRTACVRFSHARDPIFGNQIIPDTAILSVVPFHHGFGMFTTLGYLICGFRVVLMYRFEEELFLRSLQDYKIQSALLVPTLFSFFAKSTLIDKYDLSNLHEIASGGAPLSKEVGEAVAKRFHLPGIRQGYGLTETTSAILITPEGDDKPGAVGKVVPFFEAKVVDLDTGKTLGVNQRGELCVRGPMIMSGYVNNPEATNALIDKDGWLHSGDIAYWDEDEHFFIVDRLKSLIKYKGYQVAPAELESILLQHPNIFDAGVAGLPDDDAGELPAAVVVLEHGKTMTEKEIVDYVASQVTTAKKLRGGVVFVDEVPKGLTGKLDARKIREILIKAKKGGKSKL

CCOP(=O)([O-])OCC.CCn1cc[n+](C)c1
Luciferase Efficacy (in parenthesis) [1]: 86.36 ± 7.02 (-39 ± 30) % | IC50 ([1]; read-out: Luciferase IC50 (half-maximal inhibitory concentration)): 86.4 µM | CYP1A2 Efficacy (in parenthesis) (human CYP1A2 [2]): 78.99 ± 0 (-105 ± 5) % | IC50 (human CYP1A2 [2]): 79 µM | CYP2C9 Efficacy (in parenthesis) (human CYP2C9 [3]): 58.2 ± 3.94 (-117 ± 2) % | IC50 (human CYP2C9 [3]): 58.2 µM | CYP2C19 Efficacy (in parenthesis) (human CYP2C19 [4]): 68.44 ± 11.66 (-161 ± 32) % | IC50 (human CYP2C19 [4]): 68.4 µM | CYP2D6 Efficacy (in parenthesis) (human CYP2D6): 0.61 ± 0.29 (-97 ± 6) % | IC50 (human CYP2D6): 0.61 µM | CYP3A4 Efficacy (in parenthesis) (CYP3A4): 45.03 ± 9.43 (-76 ± 7) % | IC50 (CYP3A4): 45 µM

Cl.ClCCCN1CCN(c2cccc(Cl)c2)CC1
Luciferase IC50 [1]: Inactive | AC50 (human CYP1A2 [2]): 16.1 µM | CYP1A2 Efficacy (human CYP1A2 [2]): 16.12 ± 1.09 (-77 ± 4) % | AC50 (human CYP2C9 [3]): 16.8 µM | CYP2C9 Efficacy (human CYP2C9 [3]): 16.75 ± 1.09 (-48 ± 5) % | AC50 (human CYP2C19 [4]): 8.86 µM | CYP2C19 Efficacy (human CYP2C19 [4]): 8.86 ± 2.03 (-125 ± 5) % | AC50 (human CYP2D6): 0.79 µM | CYP2D6 Efficacy (human CYP2D6): 0.79 ± 0.18 (-96 ± 4) % | AC50 (CYP3A4): 15.5 µM | CYP3A4 IC50 (CYP3A4): 15.49 ± 0 (111 ± 12) µM

Cl.Cl.c1ccc(CNCCNCc2ccccc2)cc1
Luciferase IC50 [1]: Inactive | CYP1A2 Efficacy (human CYP1A2 [2]): 20.22 ± 5.13 (-47 ± 10) % | CYP2C9 IC50 (human CYP2C9 [3]): Inactive | CYP2C19 Efficacy (human CYP2C19 [4]): 8.08 ± 0.55 (-122 ± 16) % | CYP2D6 Efficacy (human CYP2D6): 0.79 ± 0.18 (-110 ± 5) %

CC[C@]12CCCN3CCc4c(n(c5ccccc45)C(=O)C1)[C@@H]32 [(-)-Eburnamonine]
Luciferase IC50 (half-maximal inhibitory concentration) [1]: Inactive | IC50 (human CYP1A2 [2]): 24.1 µM | IC50 (human CYP2C9 [3]): 20.1 µM | IC50 (human CYP2C19 [4]): 6.17 µM | IC50 (CYP3A4): 4.38 µM

CCCCCCCCCCCCCCCC[N+](C)(C)Cc1ccccc1.[Cl-] [Benzylhexadecyldimethylammonium chloride]
Luciferase IC50 [1]: Inactive | CYP1A2 Efficacy (human CYP1A2 [2]): 75.23 ± 5.09 (-82 ± 8) % | CYP2C9 Efficacy (human CYP2C9 [3]): 46.2 ± 8.63 (-120 ± 17) % | CYP2C19 Efficacy (human CYP2C19 [4]): 46.97 ± 13.09 (-144 ± 26) % | CYP2D6 Efficacy (human CYP2D6): 0.34 ± 0.06 (-98 ± 2) %

CN(C)CCN(Cc1ccc(Cl)cc1)c1ccccn1.Cl [Chloropyramine hydrochloride]
Luciferase IC50 [1]: Inactive | CYP1A2 Efficacy (human CYP1A2 [2]): 20.13 ± 6.48 (-40 ± 3) % | CYP2C19 Efficacy (human CYP2C19 [4]): 7.51 ± 1.03 (-122 ± 9) % | CYP2D6 Efficacy (human CYP2D6): 0.23 ± 0.05 (-101 ± 4) % | CYP3A4 IC50 (CYP3A4): Inactive

C[C@@H](NCCCc1cccc(C(F)(F)F)c1)c1cccc2ccccc12 [Cinacalcet hydrochloride]
Luciferase IC50 [1]: Inactive | IC50 (human CYP2D6; human): 0.05 µM | IC50 (human CYP1A2 [5]): 26.9 ± 8.25 µM | IC50 (human CYP2C9 [6]): 38.9 µM | IC50 (human CYP2C19 [7]): 10.8 ± 2.69 µM

C[C@@H](Cc1ccccc1)NCc1ccccc1Cl.Cl [Clobenzorex hydrochloride]
Luciferase IC50 [1]: Inactive | CYP1A2 Efficacy (human CYP1A2 [2]): 15.49 ± 0 (-71 ± 4) % | CYP2C9 IC50 (human CYP2C9 [3]): Inactive | CYP2C19 Efficacy (human CYP2C19 [4]): 1.49 ± 0.1 (-137 ± 12) % | CYP2D6 Efficacy (human CYP2D6): 0.15 ± 0.03 (-111 ± 2) %

O=c1c(-c2ccc(O)cc2)coc2cc(O)ccc12 [Daidzein]
IC50 [1]: 19.6 µM | CYP2D6 IC50 (half-maximal inhibitory concentration) (human CYP2D6): Inactive | IC50 (human CYP1A2 [5]; CYP1A2 IC50 (half-maximal inhibitory concentration)): 28.3 µM | IC50 (human CYP2C9 [6]; [8]): 0.36 µM | IC50 (human CYP2C19 [7]; CYP2C19 IC50 (half-maximal inhibitory concentration)): 36.4 µM

CCOP(=S)(OCC)Oc1cc(C)nc(C(C)C)n1 [Diazinon]
Luciferase IC50 [1]: Inactive | CYP2D6 IC50 (human CYP2D6): Inactive | IC50 (human CYP1A2 [5]; CYP1A2 IC50): 7.13 µM | IC50 (human CYP2C9 [6]; CYP2C9 IC50): 1.99 µM | IC50 (human CYP2C19 [7]; CYP2C19 IC50): 0.44 µM

CC#C[C@]1(O)CC[C@H]2[C@@H]3C[C@H](C)C4=CC(=O)CC[C@]4(C)[C@H]3CC[C@@]21C [Dimethisteron]
Luciferase IC50 [1]: Inactive | CYP1A2 IC50 (human CYP1A2 [2]): Inactive | CYP2D6 IC50 (human CYP2D6): Inactive | IC50 (human CYP2C9 [6]; CYP2C9 IC50): 24.1 µM | IC50 (human CYP2C19 [7]; CYP2C19 IC50): 9.42 µM

ClC1=C(Cl)C2(Cl)C3C4CC(C5OC45)C3C1(Cl)C2(Cl)Cl (stereo not shown) [Endrin]
Luciferase IC50 [1]: Inactive | CYP2D6 IC50 (human CYP2D6): Inactive | IC50 (human CYP1A2 [5]; CYP1A2 IC50): 54 µM | IC50 (human CYP2C9 [6]; CYP2C9 IC50): 12.4 µM | IC50 (human CYP2C19 [7]; CYP2C19 IC50): 26.6 µM

CCN(CC)C(=O)/C(C#N)=C/c1cc(O)c(O)c([N+](=O)[O-])c1 [Entacapone]
Luciferase IC50 (half-maximal inhibitory concentration) [1]: Inactive | CYP1A2 IC50 (half-maximal inhibitory concentration) (human CYP1A2 [2]): Inactive | CYP2C19 IC50 (half-maximal inhibitory concentration) (human CYP2C19 [4]): Inactive | CYP2D6 IC50 (half-maximal inhibitory concentration) (human CYP2D6): Inactive | CYP3A4 IC50 (half-maximal inhibitory concentration) (CYP3A4): Inactive | IC50 (human CYP2C9 [6]; [8]): 0.2 µM

CCC(CN)=C(c1ccccc1)c1ccccc1.Cl [Etifelmine hydrochloride]
Luciferase IC50 [1]: Inactive | CYP1A2 Efficacy (human CYP1A2 [2]): 14.36 ± 3.71 (-50 ± 13) % | CYP2C9 Efficacy (human CYP2C9 [3]): 11.85 ± 3.88 (-96 ± 8) % | CYP2C19 Efficacy (human CYP2C19 [4]): 5.99 ± 2.37 (-107 ± 10) % | CYP2D6 Efficacy (human CYP2D6): 4.07 ± 0.52 (-106 ± 3) %

C#Cc1ccc(-c2ccccc2F)cc1 [Fluretofene]
IC50 [1]: 25.8 µM | IC50 (human CYP1A2 [5]): 0.88 µM | IC50 (human CYP2C9 [6]): 16.1 µM | IC50 (human CYP2C19 [7]): 25.7 µM
